Measurements taken from patent US6642227B2, “Inhibitors of c-Jun N-terminal kinases (JNK) and other protein kinases” (Vertex Pharmaceuticals Incorporated, priority 2001, dated 2003).

How the values were obtained:
Format in all cases: biochemical
[1] = target: T1, human Src kinase (Homo sapiens, UniProt P12931); experiment: Src inhibition assay (A: radioactivity-based or B: spectrophotometric coupled-enzyme assay); details: assay A or B not specified; inhibitor concentration not given
T1 construct: full length recombinant human Src kinase; purchased Upstate Biotechnology 14-117; host or cells: baculovirus-infected cells
Experimental: The compounds were evaluated as inhibitors of human Src kinase using either a radioactivity-based assay or spectrophotometric assay.
The compounds were assayed as inhibitors of full length recombinant human Src kinase (from Upstate Biotechnology, cat. no. 14-117) expressed and purified from baculo viral cells. Src kinase activity was monitored by following the incorporation of ^33p from ATP into the tyrosine of a random poly Glu-Tyr polymer substrate of composition, Glu:Tyr=4:1 (Sigma, cat. no. P-0275). The following were the final concentrations of the assay components: 0.05 M HEPES, pH 7.6, 10 mM MgCl2, 2 mM DTT, 0.25 mg/ml BSA, 10 μM ATP (1-2 uCi ^33P-ATP per reaction), 5 mg/ml poly Glu-Tyr, and 1-2 units of recombinant human Src kinase. In a typical assay, all the reaction components with the exception of ATP were pre-mixed and aliquoted into assay plate wells.
Inhibitors dissolved in DMSO were added to the wells to give a final DMSO concentration of 2.5%. The assay plate was incubated at 30° C. for 10 min before initiating the reaction with ^33P-ATP. After 20 min of reaction, the reactions were quenched with 150 μl of 10% trichloroacetic acid (TCA) containing 20 mM Na3PO4. The quenched samples were then transferred to a 96-well filter plate (Whatman, UNI-Filter GF/F Glass Fiber Filter, cat no. 7700-3310) installed on a filter plate vacuum manifold. Filter plates were washed four times with 10% TCA containing 20 mM Na3PO4 and then 4 times with methanol. 200 μl of scintillation fluid was then added to each well. The plates were sealed and the amount of radioactivity associated with the filters was quantified on a TopCount scintillation counter. The radioactivity incorporated was plotted as a function of the inhibitor concentration. The data was fitted to a competitive inhibition kinetics model to get the Ki for the compound.
(§1) The ADP produced from ATP by the human recombinant Src kinase-catalyzed phosphorylation of poly Glu-Tyr substrate was quanitified using a coupled enzyme assay (Fox et al (1998) Protein Sci 7, 2249). In this assay one molecule of NADH is oxidised to NAD for every molecule of ADP produced in the kinase reaction. The disappearance of NADH can be conveniently followed at 340 nm.
(§2) The following were the final concentrations of the assay components: 0.025 M HEPES, pH 7.6, 10 mM MgCl2, 2 mM DTT, 0.25 mg/ml poly Glu-Tyr, and 25 nM of recombinant human Src kinase. Final concentrations of the components of the coupled enzyme system were 2.5 mM phosphoenolpyruvate, 200 μM NADH, 30 μg/ml pyruvate kinase and 10 μg/ml lactate dehydrogenase.
(§3) In a typical assay, all the reaction components with the exception of ATP were pre-mixed and aliquoted into assay plate wells. Inhibitors dissolved in DMSO were added to the wells to give a final DMSO concentration of 2.5%. The assay plate was incubated at 30 C. for 10 min before initiating the reaction with 100 μM ATP. The absorbance change at 340 nm with time, the rate of the reaction, was monitored on a molecular devices plate reader. The data of rate as a function of the inhibitor concentration was fitted to compettive inhibition kinetics model to get the Ki for the compound.

[2] = target: T2, activated JNK3 (Homo sapiens, UniProt P53779); experiment: JNK inhibition assay (spectrophotometric coupled-enzyme assay)
T2 construct: One such construct encodes amino acid residues Ser40-Glu402 of JNK3α1 and is preceded by Met and Gly residues; Met-Gly dipeptide (initiator Met plus Gly added for the NcoI site) (N); made in house; host or cells: E. coli BL21 (DE3)
From the text: A BLAST search of the EST database using the published JNK3α1 cDNA as a query identified an EST clone (#632588) that contained the entire coding sequence for human JNK3α1. Polymerase chain reactions (PCR) using pfu polymerase (Strategene) were used to introduce restriction sites into the cDNA for cloning into the pET-15B expression vector at the NcoI and BamHI sites. The protein was expressed in E. coli. Due to the poor solubility of the expressed full-length protein (Met 1-Gln 422), an N-terminally truncated protein starting at Ser residue at position 40 (Ser 40) was produced. This truncation corresponds to Ser 2 of JNK1 and JNK2 proteins, and is preceded by a methionine (initiation) and a glycine residue. The glycine residue was added in order to introduce an NcoI site for cloning into the expression vector. In addition, systematic C-terminal truncations were performed by PCR to identify a construct that give rise to diffraction-quality crystals. One such construct encodes amino acid residues Ser40-Glu402 of JNK3α1 and is preceded by Met and Gly residues.
The construct was prepared by PCR using deoxyoligonucleotides: 5′ […] 3′ (forward primer with initiation codon underlined)(SEQ ID NO:1) and 5′ […] 3′ (reverse primer with stop codon underlined)(SEQ ID NO:2) as primers and was confirmed by DNA sequencing.
E.coli strain BL21 (DE3) (Novagen) was transformed with the JNK3 expression construct and grown at 30° C. in LB supplemented with 100 μg/ml carbenicillin in shaker flasks until the cells were in log phase (OD600˜0.8). Isopropylthio-β-D-[…] (IPTG) was added to a final concentration of 0.8 mM and the cells were harvested 2 hours later by centrifugation.
E. coli cell paste containing JNK3 was resuspended in 10 volumes/g lysis buffer (50 mM HEPES, pH 7.2, containing 10% glycerol (v/v), 100 mM NaCl, 2 mM DTT, 0.1 mM PMSF, 2 μg/ml Pepstatin, lug/ml each of E-64 and Leupeptin). Cells were lysed on ice using a microfluidizer and centrifuged at 100,000×g for 30 min at 4° C. The 100,000×g supernatant was diluted 1:5 with Buffer A (20 mM HEPES, pH 7.0, 10% glycerol (v/v), 2 mM DTT) and purified by SP-Sepharose (Pharmacia) cation-exchange chromatography (column dimensions: 2.6×20 cm) at 4° C. The resin was washed with 5 column volumes of Buffer A, followed by 5 column volumes of Buffer A containing 50 mM NaCl. Bound JNK3 was eluted with a 7.5 column volume linear gradient of 50-300 mM NaCl. JNK3 eluted between 150-200 mM NaCl.
Five mg of JNK3 was diluted to 0.5 mg/ml in 50 mM HEPES buffer, pH 7.5, containing 100 mM NaCl, 5 mM DTT, 20 mM MgCl2 and 1 mM ATP. GST-MKK7(DD) was added at a molar ratio of 1:2.5 GST-MKK7:JNK3. After incubation for 30 minutes at 25° C., the reaction mixture was concentrated 5-fold by ultrafiltration in a Centriprep-30 (Amicon, Beverly, Mass.), diluted to 10 ml and an additional 1 mM ATP added. This procedure was repeated three times to remove ADP and replenish ATP. The final addition of ATP was 5 mM and the mixture incubated overnight at 4° C.
The activated JNK3/GST-MKK7(DD) reaction mixture was exchanged into 50 mM HEPES buffer, pH 7.5, containing 5 mM DTT and 5% glycerol (w/v) by dialysis or ultrafiltration. The reaction mixture was adjusted to 1.1 M potassium phosphate, pH 7.5, and purified by hydrophobic interaction chromatography (at 25° C.) using a Rainin Hydropore column. […] Activated JNK3 (i.e. doubly phosphorylated JNK3) was stored at −70° C. at 0.25-1 mg/ml.
Compounds were assayed for the inhibition of JNK3 by a spectrophotometric coupled-enzyme assay. In this assay, a fixed concentration of activated JNK3 (10 nM) was incubated with various concentrations of a potential inhibitor dissolved in DMSO for 10 minutes at 30° C. in a buffer containing 0.1 M HEPES buffer, pH 7.5, containing 10 mM MgCl2, 2.5 mM phosphoenolpyruvate, 200 μM NADH, 150 μg/mL pyruvate kinase, 50 μg/mL lactate dehydrogenase, and 200 μM EGF receptor peptide. […]

[3] = target: human Lck kinase (UniProt P06239); experiment: Lck inhibition assay (A: radioactivity-based or B: spectrophotometric coupled-enzyme assay); details: read-out: Lck Activity (Ki rating)
Experimental: The compounds were evaluated as inhibitors of human Lck kinase using either a radioactivity-based assay or spectrophotometric assay.
The compounds were assayed as inhibitors of full length bovine thymus Lck kinase (from Upstate Biotechnology, cat. no. 14-106) expressed and purified from baculo viral cells. Lck kinase activity was monitored by following the incorporation of ^33p from ATP into the tyrosine of a random poly Glu-Tyr polymer substrate of composition, Glu:Tyr=4:1 (Sigma, cat. no. P-0275). The following were the final concentrations of the assay components: 0.025 M HEPES, pH 7.6, 10 mM MgCl2, 2 mM DTT, 0.25 mg/ml BSA, 10 μM ATP (1-2 μCi ^33P-ATP per reaction), 5 mg/ml poly Glu-Tyr, and 1-2 units of recombinant human […] kinase. In a typical assay, all the reaction components with the exception of ATP were pre-mixed and aliquoted into assay plate wells. Inhibitors dissolved in DMSO were added to the wells to give a final DMSO concentration of 2.5%. The assay plate was incubated at 30 C. for 10 min before initiating the reaction with ^33P-ATP. After 20 min of reaction, the reactions were quenched with 150 μl of 10% trichloroacetic acid (TCA) containing 20 mM Na3PO4. The quenched samples were then transferred to a 96-well filter plate (Whatman, UNI-Filter GF/F Glass Fiber Filter, cat no. 7700-3310) installed on a filter plate vacuum manifold. Filter plates were washed four times with 10% TCA containing 20 mM Na3PO4 and then 4 times with methanol. 200 μl of scintillation fluid was then added to each well. The plates were sealed and the amount of radioactivity associated with the filters was quantified on a TopCount scintillation counter. The radioactivity incorporated was plotted as a function of the inhibitor concentration. The data was fitted to a competitive inhibition kinetics model to get the Ki for the compound.
as §1, with “Lck” for “Src”
as §2, with “DTT, 5” for “DTT, 0.25”, “and 50” for “and 25”, “human Lck” for “human Src”
as §3, with “30°” for “30”, “150” for “100”, “competitive” for “compettive”

T2 sequence (P53779 40-402): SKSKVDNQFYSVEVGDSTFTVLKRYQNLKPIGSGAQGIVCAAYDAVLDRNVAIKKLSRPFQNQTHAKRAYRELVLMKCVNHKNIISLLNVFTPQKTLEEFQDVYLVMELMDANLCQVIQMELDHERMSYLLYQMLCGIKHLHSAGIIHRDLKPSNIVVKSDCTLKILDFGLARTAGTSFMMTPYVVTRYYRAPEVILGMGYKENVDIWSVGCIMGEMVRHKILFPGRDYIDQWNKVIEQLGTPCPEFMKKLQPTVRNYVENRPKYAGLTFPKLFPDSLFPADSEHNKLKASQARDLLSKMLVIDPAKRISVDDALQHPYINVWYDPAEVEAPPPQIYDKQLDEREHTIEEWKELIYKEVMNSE
T1 sequence (P12931 whole entry): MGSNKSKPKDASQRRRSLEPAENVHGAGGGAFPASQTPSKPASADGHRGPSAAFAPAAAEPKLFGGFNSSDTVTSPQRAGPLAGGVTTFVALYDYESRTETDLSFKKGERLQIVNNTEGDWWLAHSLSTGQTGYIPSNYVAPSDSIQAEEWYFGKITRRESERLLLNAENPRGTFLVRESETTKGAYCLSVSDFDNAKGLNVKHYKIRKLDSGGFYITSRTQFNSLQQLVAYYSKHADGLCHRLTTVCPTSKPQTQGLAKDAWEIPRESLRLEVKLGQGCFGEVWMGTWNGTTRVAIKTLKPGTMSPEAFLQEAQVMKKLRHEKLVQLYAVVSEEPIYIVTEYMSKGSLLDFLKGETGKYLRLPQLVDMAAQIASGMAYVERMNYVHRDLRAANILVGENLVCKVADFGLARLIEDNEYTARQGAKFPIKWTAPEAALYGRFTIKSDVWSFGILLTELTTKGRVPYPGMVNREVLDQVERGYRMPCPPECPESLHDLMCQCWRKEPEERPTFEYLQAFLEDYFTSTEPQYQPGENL

SMILES | Src Activity (percent inhibition class D-F) [1] | JNK3 Activity (percent inhibition class D-F) ([2]; inhibitor concentration not given) | Ki ([2]; activated JNK3 10 nM, 10 μM ATP, 30° C., read-out: JNK3 Activity (Ki class A-C)) [µM] | Ki [3] [µM]
CSc1sc(-c2nc(C)cs2)c(C)c1-c1ccnc(Nc2ccccc2)n1 [IIb-1, {4-[4-methyl-2-methylsulfanyl-5-(4-methyl-thiazol-2-yl)-thiophen-3-yl]-pyrimidin-2-yl}-phenylamine] | D (Compounds having an activity designated as “D” provided a percent inhibition less than or equal to 24%) | D (Compounds having an activity designated as “D” provided a percent inhibition less than or equal to 24%) | – | –
Cc1cnc(Nc2ccccc2)nc1-c1sc(SCc2ccc(O)cc2)c(C#N)c1-c1cccc(Cl)c1 [Compound V-1, 4-(3-chloro-phenyl)-2-(4-hydroxy-benzylsulfanyl)-5-(5-methyl-2-phenylamino-pyrimidin-4-yl)-thiophene-3-carbonitrile] | – | – | 0.1 to 1 | < 0.1
